We go through six compounds from patent US6458773B1, “Nucleoside with anti-hepatitis B virus activity” (Emory University, priority 1998, dated 2002).

The subject of data set [1] is HBV. The data set is described as follows: Anti-HBV activity in transfected 2.2.15 cells (HBV DNA replication intermediates, blot hybridization). The data set is classed as cell-based, hepatitis B virus. The note with it: read-out: EC50 (μM) R.I. Here is the method: The antiviral evaluations were performed on two separate passages of cells, two cultures per passage (4 cultures total). All wells, in all plates, were seeded at the same density and at the same time.
Due to the inherent variations in the levels of both intracellular and extracellular HBV DNA, only depressions greater than 3.0-fold (for HBV virion DNA) or 2.5-fold (for HBV DNA replication intermediates) from the average levels for these HBV DNA forms in untreated cells are generally considered to be statistically significant [P<0.05] (Korba and Gerin, Antiviral Res. 19: 55-70, 1992). The levels of integrated HBV DNA in each cellular DNA preparation (which remain constant on a per cell basis in these experiments) were used to calculate the levels of intracellular HBV DNA forms, thereby eliminating technical variations inherent in the blot hybridization assays.
Typical values for extracellular HBV virion DNA in untreated cells range from 50 to 150 pg/ml culture medium (average of approximately 76 pg/ml). Intracellular HBV DNA replication intermediates in untreated cells range from 50 to 100 pg/ug cell DNA (average approximately 74 pg/ug cell DNA). In general, depressions in the levels of intracellular HBV DNA due to treatment with antiviral compounds are less pronounced, and occur more slowly, than depressions in the levels of HBV virion DNA.
For reference, the manner in which the hybridization analyses were performed for these experiments results in an equivalence of approximately 1.0 pg intracellular HBV DNA/ug cellular DNA to 2-3 genomic copies per cell and 1.0 pg of extracellular HBV DNA/ml culture medium to 3×10^5 viral particles/ml.
The test compounds were used in the form of stock solutions in DMSO (frozen on dry ice). Daily aliquots of the test samples were made and frozen at −20° C. so that each individual aliquot would be subjected to a single freeze-thaw cycle. The daily test aliquots were thawed, suspended into culture medium at room temperature and immediately added to the cell cultures.
The ability of the active compounds to inhibit the growth of virus in 2.2.15 cell cultures (HepG2 cells transformed with hepatitis virion) was evaluated.

The subject of data set [2] is BFU-E. The data set is described as follows: Human bone marrow clonogenic assay, BFU-E. The data set is classed as cell-based. As to conditions: effect on cell growth.
In data set [3] the test system is Normal Hep G2 cells. The data set is described as follows: Cytotoxicity by uptake of neutral red dye. The data set is classed as cell-based. How it is done: (§1) Toxicity analyses were performed in order to assess whether any observed antiviral effects were due to a general effect on cell viability. This can be assessed by the uptake of neutral red dye, a standard and widely used assay for cell viability in a variety of virus-host systems, including HSV (herpes simplex virus) and HIV.
(§2) Toxicity analyses were performed in 96-well flat bottomed tissue culture plates. Cells for the toxicity analyses were cultured and treated with test compounds with the same schedule as used for the antiviral evaluations. Each compound was tested at 4 concentrations, each in triplicate cultures. Uptake of neutral red dye was used to determine the relative level of toxicity. The absorbance of internalized dye at […] (A510) was used for the quantitative analysis. Values are presented as a percentage of the average A510 values (±standard deviations) in 9 separate cultures of untreated cells maintained on the same 96-well plate as the test compounds.

The subject of data set [4] is CFU-GM. The data set is described as follows: Human bone marrow clonogenic assay, CFU-GM. The data set is classed as cell-based. As to conditions: effect on cell growth.
The test system of data set [5] is Normal Hep G2 cells. As to conditions: neutral red dye uptake; typically observed in these assays (Korba and Gerin 1992); cited from earlier work.
Data set [6] is described as follows: Cytotoxicity by uptake of neutral red dye. As to conditions: human, Normal Hep G2 cells. The data set is classed as cell-based. How it is done: as §1, §2
Where [7] appears, read: Transfected 2.2.15 cells, HBV DNA replication intermediates (R.I.).

Where two headings read alike, the source gives them in different places.

Consider `Nc1ccn([C@@H]2CS[C@H](CO)O2)c(=O)n1` (single isomer, unassigned) [Lamivudine (3TC), (−)-enantiomer of cis-2-hydroxymethyl-5-(cytosin-1-yl)-1,3-oxathiolane], for which the EC50 in data set [1] (setting [7]) was found to be 0.03 µM.
For the compound `Nc1nc(=O)n([C@H]2CC[C@@H](CO)O2)cc1F` [Compound L-5-FddC], the figures for the EC50 in data set [2], in data set [1] (setting [7]) and in data set [4] were 1800 nM, 0.05 µM and 1200 nM, respectively. The compound further registered a CC50 in data set [3] of over 200000 nM.
Regarding `Nc1ccn([C@H]2CC[C@@H](CO)O2)c(=O)n1` [D-ddC, 2′,3′-dideoxycytidine], in data set [5], the “concentration giving a 2-fold reduction in dye uptake versus untreated cultures” value is 150 to 190 µM. For the same compound, the EC50 in data set [2] was determined as 50 nM; in data set [4], 700 nM.
`[N-]=[N+]=N[C@H]1C[C@H](CO)O[C@@H]1n1cc(F)c(N)nc1=O` [L-2-azido-5-FddC, 1-(2,3-Dideoxy-2-azido-β-L-erythro-pentofuranosyl)-5-fluorocytosine]: the EC50 is over 10000 nM in data set [2], 0.1 µM in data set [1] (Hepatitis B virus) and over 10000 nM in data set [4]. In data set [6], this compound displayed a CC50 of over 200000 nM.
For `[N-]=[N+]=NC1C[C@@H](n2cc(F)c(N)nc2=O)O[C@H]1CO` (stereo partly drawn) [L-3-azido-5-FddC, β-L-(3′-azido)-2′,3′-dideoxy-5-fluorocytidine], the EC50 in data set [2] turned out to be 10000 nM; in data set [1] (Hepatitis B virus, Transfected 2.2.15 cells, HBV DNA replication intermediates (R.I.)), 0.01 µM; in data set [4] it was 10000 nM. For the same compound, the CC50 in data set [6] was over 200000 nM.
For `Cc1cn([C@H]2C[C@H](N=[N+]=[N-])[C@@H](CO)O2)c(=O)[nH]c1=O` [Zidovudine (AZT), 3′-azido-3′-deoxythymidine], the values for the EC50 in data set [2] and in data set [4] were 600 nM and 1900 nM, respectively.

Usually EC50 stands for the concentration giving half of the maximal effect. For orientation: CC50 means the concentration at which the toxic effect on the cells reaches its halfway point.
